IC50 data for 16 compounds are collected here from patent publication US12195482B1 (Arcus Biosciences, Inc., priority 2022, dated 2025).

In one assay the target is T1, p-AXL (Homo sapiens, UniProt P30530).
T1 construct: expressed in transfected cells; host or cells: HEK293T
T1 sequence (P30530 26-894): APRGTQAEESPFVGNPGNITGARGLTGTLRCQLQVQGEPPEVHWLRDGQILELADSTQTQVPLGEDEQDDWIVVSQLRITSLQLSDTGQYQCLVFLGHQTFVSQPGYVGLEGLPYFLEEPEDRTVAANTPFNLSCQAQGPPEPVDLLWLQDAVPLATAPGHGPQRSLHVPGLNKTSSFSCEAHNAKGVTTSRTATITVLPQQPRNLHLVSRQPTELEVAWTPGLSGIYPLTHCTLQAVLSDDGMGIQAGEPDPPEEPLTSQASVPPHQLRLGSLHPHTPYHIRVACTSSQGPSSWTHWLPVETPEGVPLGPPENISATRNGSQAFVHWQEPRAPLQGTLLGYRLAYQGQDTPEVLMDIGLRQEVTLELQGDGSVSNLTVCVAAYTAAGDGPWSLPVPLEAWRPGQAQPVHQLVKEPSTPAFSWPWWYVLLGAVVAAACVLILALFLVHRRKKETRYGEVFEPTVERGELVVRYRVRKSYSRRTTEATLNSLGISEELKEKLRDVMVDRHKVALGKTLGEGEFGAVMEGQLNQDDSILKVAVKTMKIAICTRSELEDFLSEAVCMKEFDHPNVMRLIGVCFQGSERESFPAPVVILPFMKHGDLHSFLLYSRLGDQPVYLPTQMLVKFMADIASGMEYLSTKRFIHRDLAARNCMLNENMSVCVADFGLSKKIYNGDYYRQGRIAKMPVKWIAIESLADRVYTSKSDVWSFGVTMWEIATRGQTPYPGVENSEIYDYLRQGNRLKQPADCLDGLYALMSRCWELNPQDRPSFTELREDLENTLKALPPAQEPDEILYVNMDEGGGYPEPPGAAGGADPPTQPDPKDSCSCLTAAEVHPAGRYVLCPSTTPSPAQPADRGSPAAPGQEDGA
Nature of the assay: Axl phosphorylation inhibition ELISA in HEK293T cells transfected with NanoLuc-tagged AXL. The assay is classed as cell-based. Particulars: 1 h compound incubation, media (OptiMEM). The method, boiled down:
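Phospho-AXL detected by luminescence of NanoLuc tag after capture of cell lysate on biotinylated anti-phospho-tyrosine mAb plates (2 h). Lysates came from transiently transfected HEK293T cells treated 1 h at 37° C with serial 2-fold dilutions (22 points). IC50 by standard 4-parameter logistic fitting.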
(In general: ELISA stands for enzyme-linked immunosorbent assay.)

For the next assay, the target named is T2, Axl (Homo sapiens, UniProt P30530).
T2 sequence (P30530 26-894): T1 sequence (P30530 26-894)
Nature of the assay: Biochemical potency, HTRF KinEASE-TK kinase assay. Details: purchased Invitrogen. Particulars: 5 nM AXL, 700 μM ATP. In a few lines: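 HTRF 665/620 readout after a 2 h RT kinase reaction (final 700 μM ATP, 800 nM biotinylated TK substrate, 1% DMSO, HEPES pH 7.4 buffer) gave percent activity. Final enzyme was 5 nM for AXL, 1 nM for TYRO3 or MER, each preincubated 1 h with compound.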
A general note: TR-FRET usually uses a lanthanide donor and a delayed reading to cut background.

Usually IC50 stands for the concentration that inhibits the measured activity by half. A high value points to weaker potency in that assay. Consider `Cc1cccnc1-c1ccc(-c2n[nH]c3ncc(-c4ccc5c(c4)CC[C@@H](N4C[C@@H]6C[C@H]4CO6)CC5)cc23)cc1` [Example 130, (1S,4S)-5-[(7S)-2-{3-[4-(3-Methylpyridin-2-yl)phenyl]-1H-pyrazolo[3,4-b]pyridin-5-yl}-6,7,8,9-tetrahydro-5H-benzo[7]annulen-7-yl]-2-oxa-5-azabicyclo[2.2.1]heptane], for which the IC50 on p-AXL and against Axl was less than 100 nM throughout.

As to `Cn1nccc1-c1ccc(-c2n[nH]c3ncc(-c4ccc5c(c4)CC[C@@H](N4C6COCC4C6)CC5)cc23)cc1` [Example 109, 6-[(7S)-2-{3-[4-(1-Methyl-1H-pyrazol-5-yl)phenyl]-1H-pyrazolo[3,4-b]pyridin-5-yl}-6,7,8,9-tetrahydro-5H-benzo[7]annulen-7-yl]-3-oxa-6-azabicyclo[3.1.1]heptane], the IC50 against p-AXL and against Axl was less than 100 nM each time.

`C[C@H]1COC(=O)N1c1cccnc1-c1ccc(-c2n[nH]c3ncc(-c4ccc5c(c4)CC[C@@H](N4C6COCC4C6)CC5)cc23)cc1` [Example 125, (4S)-4-Methyl-3-[2-(4-{5-[(7S)-7-{3-oxa-6-azabicyclo[3.1.1]heptan-6-yl}-6,7,8,9-tetrahydro-5H-benzo[7]annulen-2-yl]-1H-pyrazolo[3,4-b]pyridin-3-yl}phenyl)pyridin-3-yl]-1,3-oxazolidin-2-one]: the IC50 against p-AXL and at Axl was less than 100 nM throughout.

As to `COc1cccnc1-c1ccc(-c2c[nH]c3ncc(-c4ccc5c(c4)CC[C@@H](N4C6COCC4C6)CC5)cc23)cc1` [Example 164, 6-[(7S)-2-{3-[4-(3-Methoxypyridin-2-yl)phenyl]-1H-pyrrolo[2,3-b]pyridin-5-yl}-6,7,8,9-tetrahydro-5H-benzo[7]annulen-7-yl]-3-oxa-6-azabicyclo[3.1.1]heptane], the IC50 against p-AXL and on Axl was less than 100 nM each time.

Regarding `Cn1ncnc1-c1ccc(-c2n[nH]c3ncc(-c4ccc5c(c4)CC[C@@H](N4C6COCC4C6)CC5)cc23)cc1` [Example 110, 6-[(7S)-2-{3-[4-(1-Methyl-1H-1,2,4-triazol-5-yl)phenyl]-2H-pyrazolo[3,4-b]pyridin-5-yl}-6,7,8,9-tetrahydro-5H-benzo[7]annulen-7-yl]-3-oxa-6-azabicyclo[3.1.1]heptane], the IC50 against p-AXL and at Axl was less than 100 nM throughout.

Take `Cc1ccnc(-c2ccc(-c3n[nH]c4ncc(-c5ccc6c(c5)CC[C@@H](N5C7COCC5C7)CC6)cc34)cc2)c1` [Example 117, 6-[(7S)-2-{3-[4-(4-Methylpyridin-2-yl)phenyl]-1H-pyrazolo[3,4-b]pyridin-5-yl}-6,7,8,9-tetrahydro-5H-benzo[7]annulen-7-yl]-3-oxa-6-azabicyclo[3.1.1]heptane]: the IC50 against p-AXL is 100 to 1000 nM; against Axl, less than 100 nM.

Take `Cc1ncc(C)c(-c2ccc(-c3c[nH]c4ncc(-c5ccc6c(c5)CC[C@@H](N5C7COCC5C7)CC6)cc34)cc2)n1` [Example 123, 6-[(7S)-2-{3-[4-(2,5-Dimethylpyrimidin-4-yl)phenyl]-1H-pyrrolo[2,3-b]pyridin-5-yl}-6,7,8,9-tetrahydro-5H-benzo[7]annulen-7-yl]-3-oxa-6-azabicyclo[3.1.1]heptane]: the 50% inhibitory concentration (IC50) against p-AXL and at Axl was less than 100 nM in each case.

Regarding `CN(C)C(=O)c1cccc(-c2ccc(-c3n[nH]c4ncc(-c5ccc6c(c5)CC[C@@H](N5C7COCC5C7)CC6)cc34)cc2)n1` [Example 94, N,N-Dimethyl-6-(4-{5-[(7S)-7-{3-oxa-6-azabicyclo[3.1.1]heptan-6-yl}-6,7,8,9-tetrahydro-5H-benzo[7]annulen-2-yl]-2H-pyrazolo[3,4-b]pyridin-3-yl}phenyl)pyridine-2-carboxamide], the IC50 was 100 to 1000 nM against p-AXL and less than 100 nM against Axl.

Consider `Cc1cccc(-c2ccc(-c3n[nH]c4ncc(-c5ccc6c(c5)CC[C@@H](N5C7COCC5C7)CC6)cc34)cc2)n1` [Example 116, 6-[(7S)-2-{3-[4-(6-Methylpyridin-2-yl)phenyl]-1H-pyrazolo[3,4-b]pyridin-5-yl}-6,7,8,9-tetrahydro-5H-benzo[7]annulen-7-yl]-3-oxa-6-azabicyclo[3.1.1]heptane], for which the values for the IC50 against p-AXL and against Axl were 100 to 1000 nM and less than 100 nM, respectively.

As to `Cc1cnc(-c2ccc(-c3n[nH]c4ncc(-c5ccc6c(c5)CC[C@@H](N5C7COCC5C7)CC6)cc34)cc2)c(C)c1` [Example 119, 6-[(7S)-2-{3-[4-(3,5-Dimethylpyridin-2-yl)phenyl]-1H-pyrazolo[3,4-b]pyridin-5-yl}-6,7,8,9-tetrahydro-5H-benzo[7]annulen-7-yl]-3-oxa-6-azabicyclo[3.1.1]heptane], the IC50 on p-AXL and on Axl was less than 100 nM in each case.

For the compound `O=c1ccccn1-c1ccc(-c2n[nH]c3ncc(-c4ccc5c(c4)CC[C@@H](N4C6COCC4C6)CC5)cc23)cc1` [Example 31, 1-[4-[5-[(7S)-7-(3-Oxa-6-azabicyclo[3.1.1]heptan-6-yl)-6,7,8,9-tetrahydro-5H-benzo[7]annulen-3-yl]-1H-pyrazolo[3,4-b]pyridin-3-yl]phenyl]pyridin-2-one], the values for the IC50 against p-AXL and at Axl were 100 to 1000 nM and less than 100 nM, respectively.

As to `O=C1CCCCN1c1cccnc1-c1ccc(-c2n[nH]c3ncc(-c4ccc5c(c4)CC[C@@H](N4C6COCC4C6)CC5)cc23)cc1` [Example 127, 1-[2-(4-{5-[(7S)-7-{3-Oxa-6-azabicyclo[3.1.1]heptan-6-yl}-6,7,8,9-tetrahydro-5H-benzo[7]annulen-2-yl]-1H-pyrazolo[3,4-b]pyridin-3-yl}phenyl)pyridin-3-yl]piperidin-2-one], the IC50 against p-AXL and at Axl was less than 100 nM in each case.

As to `O=C1OCCN1c1cccnc1-c1ccc(-c2n[nH]c3ncc(-c4ccc5c(c4)CC[C@@H](N4C6COCC4C6)CC5)cc23)cc1` [Example 121, 3-[2-(4-{5-[(7S)-7-{3-Oxa-6-azabicyclo[3.1.1]heptan-6-yl}-6,7,8,9-tetrahydro-5H-benzo[7]annulen-2-yl]-1H-pyrazolo[3,4-b]pyridin-3-yl}phenyl)pyridin-3-yl]-1,3-oxazolidin-2-one], the IC50 at p-AXL and against Axl was less than 100 nM in each case.

`COCCOc1cccnc1-c1ccc(-c2n[nH]c3ncc(-c4ccc5c(c4)CC[C@@H](N4C6COCC4C6)CC5)cc23)cc1` [Example 180, 6-[(7S)-2-(3-{4-[3-(2-Methoxyethoxy)pyridin-2-yl]phenyl}-1H-pyrazolo[3,4-b]pyridin-5-yl)-6,7,8,9-tetrahydro-5H-benzo[7]annulen-7-yl]-3-oxa-6-azabicyclo[3.1.1]heptane]: the IC50 against p-AXL and on Axl was less than 100 nM each time.

For `CC(C)(O)c1cccnc1-c1ccc(-c2n[nH]c3ncc(-c4ccc5c(c4)CC[C@@H](N4C6COCC4C6)CC5)cc23)nc1` [Example 100, 2-(6′-{5-[(7S)-7-{3-Oxa-6-azabicyclo[3.1.1]heptan-6-yl}-6,7,8,9-tetrahydro-5H-benzo[7]annulen-2-yl]-1H-pyrazolo[3,4-b]pyridin-3-yl}-[2,3′-bipyridin]-3-yl)propan-2-ol], the IC50 against p-AXL and against Axl was less than 100 nM throughout.

As to `CO[C@H]1C[C@@H](N[C@H]2CCc3ccc(-c4cnc5[nH]nc(-c6ccc(-c7ncccc7C)cc6)c5c4)cc3CC2)C1` [Example 131, (7S)-2-{3-[4-(3-Methylpyridin-2-yl)phenyl]-1H-pyrazolo[3,4-b]pyridin-5-yl}-N-[cis-3-methoxycyclobutyl]-6,7,8,9-tetrahydro-5H-benzo[7]annulen-7-amine], the IC50 was 100 to 1000 nM against p-AXL and less than 100 nM on Axl.
